Measurements as given in ChEMBL document CHEMBL5500382, “Discovery of potent small molecule ubiquitin-specific protease 10 inhibitors with anti-hepatocellular carcinoma activity through regulating YAP expression” (Eur J Med Chem, 2024).

Molecular target: T1, Ubiquitin carboxyl-terminal hydrolase 10 (Homo sapiens, UniProt Q14694)
Experiment: Inhibition of human USP10 deubiquitinase activity using Ubiquitin 7-amino-4-carbamoylmethylcoumarin as substrate preincubated for 30 mins followed by substrate addition and measured after 30 mins by fluorometric assay

T1 sequence (Q14694 whole entry): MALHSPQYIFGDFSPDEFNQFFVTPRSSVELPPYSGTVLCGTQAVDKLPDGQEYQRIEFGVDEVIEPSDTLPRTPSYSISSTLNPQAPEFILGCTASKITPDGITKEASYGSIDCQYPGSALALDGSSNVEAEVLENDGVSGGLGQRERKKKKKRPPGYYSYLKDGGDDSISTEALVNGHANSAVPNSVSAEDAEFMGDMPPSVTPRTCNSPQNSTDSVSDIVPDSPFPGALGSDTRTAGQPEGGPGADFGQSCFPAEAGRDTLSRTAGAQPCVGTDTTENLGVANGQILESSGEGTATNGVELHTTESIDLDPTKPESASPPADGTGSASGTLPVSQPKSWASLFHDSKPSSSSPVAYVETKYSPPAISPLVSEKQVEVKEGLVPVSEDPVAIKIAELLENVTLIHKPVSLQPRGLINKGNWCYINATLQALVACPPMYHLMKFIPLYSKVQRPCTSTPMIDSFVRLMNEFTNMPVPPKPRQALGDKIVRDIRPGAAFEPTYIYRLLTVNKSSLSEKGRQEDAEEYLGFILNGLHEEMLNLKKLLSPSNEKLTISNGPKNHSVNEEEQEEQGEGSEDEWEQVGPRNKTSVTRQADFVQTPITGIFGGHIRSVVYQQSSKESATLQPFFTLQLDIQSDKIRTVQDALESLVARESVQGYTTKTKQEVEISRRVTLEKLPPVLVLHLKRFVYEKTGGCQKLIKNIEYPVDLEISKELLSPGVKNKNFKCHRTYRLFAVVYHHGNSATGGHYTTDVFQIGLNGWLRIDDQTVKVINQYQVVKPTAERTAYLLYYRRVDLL

Compound	IC50 [µM]
Cc1ccccc1NC(=O)c1cn(CC(=O)N2CCC(N3CCN(C)CC3)CC2)c2cc(C(F)(F)F)ccc2c1=O	> 30
COCCOc1ccc(N2CCN(C(=O)Cn3cc(C(=O)Nc4ccccc4C)c(=O)c4ccc(C(F)(F)F)cc43)CC2)cc1	> 30
Cc1ccc2c(=O)c(-c3nc(-c4ccccc4C)no3)cn(CC(=O)Nc3c(F)cccc3F)c2n1	11.1
Cc1ccc2c(=O)c(-c3nc(-c4ccccc4C)no3)cn(CC(=O)NC3CCN(c4ccc(Cl)cc4)CC3)c2c1	9.2
Cc1ccccc1NC(=O)c1cn(CC(=O)N2CC3(CCN(C(=O)OC(C)(C)C)CC3)C2)c2cc(C(F)(F)F)ccc2c1=O	> 30
Cc1ccccc1NC(=O)c1c[nH]c2cc(C(F)(F)F)ccc2c1=O	> 30
Cc1ccccc1NC(=O)c1cn(CC(=O)NC(C)CO)c2cc(C(F)(F)F)ccc2c1=O (stereo not given)	> 30
Cc1ccc2c(=O)c(C(=O)N3CCOCC3)cn(CC(=O)NCCc3ccc(Cl)cc3)c2n1	> 30

The next lines start with the values.

IC50 [µM]	Compound
21.2	COc1ccc([C@H](C)NC(=O)c2cn(CC(=O)NCCc3ccc(Cl)cc3)c3cc(C)ccc3c2=O)cc1
8.4	Cc1ccccc1NC(=O)c1cn(CC(=O)NCCc2ccc(Cl)cc2)c2cc(N3CCOCC3)ccc2c1=O
> 30	C[C@H](NC(=O)c1cn(CC(=O)NCCc2ccc(Cl)cc2)c2cc(C(F)(F)F)ccc2c1=O)c1ccccc1
9	Cc1ccc2c(=O)c(-c3nnc(Cc4ccccc4)o3)cn(CC(=O)NCCc3ccc(Cl)cc3)c2c1
11.9	C[C@H](NC(=O)c1cn(CC(=O)NCCc2ccc(Cl)cc2)c2cc(F)ccc2c1=O)c1ccccc1
10.9	Cc1ccc2c(=O)c(C(=O)N[C@@H](C)c3ccccc3)cn(CC(=O)N3CCN(c4ccc(Cl)cc4)CC3)c2c1
> 30	Cc1ccc2c(=O)c(C(=O)N[C@@H](C)c3ccc(F)cc3)cn(CC(=O)NCCc3ccc(Cl)cc3)c2c1
> 30	Cc1ccc2c(c1)c(=O)c(C(=O)Nc1ccccc1C)cn2CC(=O)NCCc1ccc(Cl)cc1
> 30	Cc1ccc2c(=O)c(C(=O)NC3CCOCC3)cn(CC(=O)NCCc3ccc(Cl)cc3)c2n1
> 30	Cc1ccc2c(=O)c(C(=O)N[C@@H](C)c3ccccc3)cn(CC(=O)NCCc3ccc(Cl)cc3)c2c1
> 30	Cc1ccccc1NC(=O)c1cn(CC(=O)NCCc2ccc(Cl)cc2)c2ccc(F)cc2c1=O
10.6	Cc1ccccc1NC(=O)c1cn(CC(=O)NCCc2ccc(Cl)cc2)c2cc(N3CCCCC3)ccc2c1=O
9.5	Cc1ccc2c(=O)c(C(=O)Nc3ccccc3C)cn(CC(=O)NCCc3ccc(Cl)cc3)c2n1
7.9	COc1ccc2c(=O)c(-c3nc(-c4ccccc4C)no3)cn(CC(=O)NCCc3ccc(Cl)cc3)c2c1

System: Bel-7402
Experiment: Antiproliferative activity against human Bel-7402 cells by CCK-8 method

IC50 [µM]	Compound
22.7	Cc1ccc2c(=O)c(-c3nc(-c4ccccc4C)no3)cn(CC(=O)Nc3c(F)cccc3F)c2n1

Molecular target: T1, Ubiquitin carboxyl-terminal hydrolase 10
Experiment: Inhibition of human recombinant his tagged USP10 assessed as deubiquitinase activity

IC50 [µM]	Compound
8.3	CCOC(=O)c1cc([N+](=O)[O-])c(Oc2ccc(C(=O)OC)cc2)s1

Molecular target: T2, Ubiquitin carboxyl-terminal hydrolase 13 (Homo sapiens, UniProt Q92995)
T2 sequence (Q92995 whole entry): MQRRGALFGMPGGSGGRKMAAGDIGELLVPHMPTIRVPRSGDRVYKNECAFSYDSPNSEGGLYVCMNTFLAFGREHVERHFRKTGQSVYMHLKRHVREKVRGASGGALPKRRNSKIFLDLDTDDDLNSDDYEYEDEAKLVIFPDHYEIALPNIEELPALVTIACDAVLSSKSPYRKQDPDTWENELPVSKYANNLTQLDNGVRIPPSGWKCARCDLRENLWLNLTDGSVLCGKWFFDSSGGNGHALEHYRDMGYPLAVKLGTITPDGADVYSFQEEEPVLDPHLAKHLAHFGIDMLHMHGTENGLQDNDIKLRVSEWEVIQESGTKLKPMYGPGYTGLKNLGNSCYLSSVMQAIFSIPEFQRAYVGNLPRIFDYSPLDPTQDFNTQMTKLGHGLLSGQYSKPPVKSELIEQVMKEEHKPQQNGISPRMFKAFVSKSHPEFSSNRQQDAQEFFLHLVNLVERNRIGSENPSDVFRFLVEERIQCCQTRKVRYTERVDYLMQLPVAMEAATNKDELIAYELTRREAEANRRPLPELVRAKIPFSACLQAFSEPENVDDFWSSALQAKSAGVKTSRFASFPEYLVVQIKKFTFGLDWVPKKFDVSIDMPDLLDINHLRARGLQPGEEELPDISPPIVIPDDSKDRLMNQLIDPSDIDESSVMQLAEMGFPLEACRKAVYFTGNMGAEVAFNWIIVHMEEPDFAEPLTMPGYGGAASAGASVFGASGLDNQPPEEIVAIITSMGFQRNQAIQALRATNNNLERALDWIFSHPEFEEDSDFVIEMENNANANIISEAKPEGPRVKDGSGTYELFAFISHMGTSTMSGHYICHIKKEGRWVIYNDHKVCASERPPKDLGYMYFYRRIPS
Experiment: Inhibition of USP13 (unknown origin)

IC50 [µM]	Compound
0.7	Fc1ccc(CNc2ncnc3ccc(F)cc23)cc1
